Tests used:
Test in all cases: In vitro competitive activity-based protein profiling (gel-based, FP-Rh or HT-01 probe)
Type in all cases: biochemical
ABHD6 = target: T1, ABHD6 (Mus musculus, UniProt Q8R2Y0); conditions: for inhibition at 1 µM: 1 μM inhibitor, read-out: % Inhibition at 1 μM, C = ABHD6; for inhibition at 10 µM: 10 μM inhibitor, read-out: % Inhibition at 10 μM, C = ABHD6; for IC50: mouse brain membrane fraction or cell lysates, 30 min preincubation at 37° C., read-out: Mouse (IC50 value, nM) ABHD6
T1 construct: Proteomes (mouse brain membrane fraction or cell lysates); from tissue; host or cells: mouse brain membrane fraction (or cell lysates, not specified)
T1 sequence (Q8R2Y0 1-336): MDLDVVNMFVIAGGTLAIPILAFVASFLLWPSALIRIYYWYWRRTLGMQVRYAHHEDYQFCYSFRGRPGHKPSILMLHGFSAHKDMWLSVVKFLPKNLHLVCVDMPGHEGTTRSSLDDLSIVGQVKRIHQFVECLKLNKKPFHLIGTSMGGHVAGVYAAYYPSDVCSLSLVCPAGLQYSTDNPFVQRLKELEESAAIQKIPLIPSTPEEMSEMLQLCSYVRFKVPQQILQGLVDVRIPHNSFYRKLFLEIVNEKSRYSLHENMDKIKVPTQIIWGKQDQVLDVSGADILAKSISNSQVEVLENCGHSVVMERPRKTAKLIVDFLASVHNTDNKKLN
Method in brief: (§1)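 Read-out: fluorescent band intensity on SDS-PAGE gels, reporting remaining serine hydrolase activity. Before that, proteome (mouse brain membranes or cell lysates, 1.0 mg/mL) saw a range of inhibitor concentrations for 30 min at 37° C, followed by 30 min probe labelling (FP-Rh or HT-01).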

MAGL = target: T2, MAGL (Mus musculus, UniProt O35678); conditions: for inhibition at 1 µM: 1 μM inhibitor; for inhibition at 10 µM: 10 μM inhibitor; for IC50: mouse brain membrane fraction or cell lysates, 30 min preincubation at 37° C., read-out: Mouse (IC50 value, nM) MAGL
T2 construct: Proteomes (mouse brain membrane fraction or cell lysates); from tissue; host or cells: mouse brain membrane fraction (or cell lysates, not specified)
T2 sequence (O35678 1-303): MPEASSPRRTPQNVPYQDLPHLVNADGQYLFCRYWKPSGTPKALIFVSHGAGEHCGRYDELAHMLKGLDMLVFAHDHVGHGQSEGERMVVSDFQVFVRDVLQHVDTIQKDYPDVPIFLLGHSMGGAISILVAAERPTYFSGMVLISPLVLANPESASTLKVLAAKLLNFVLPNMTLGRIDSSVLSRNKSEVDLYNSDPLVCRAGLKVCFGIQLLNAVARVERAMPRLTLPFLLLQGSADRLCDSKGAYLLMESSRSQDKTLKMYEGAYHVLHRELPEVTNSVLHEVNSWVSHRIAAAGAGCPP
Method in brief: as §1

PLA2G7 = target: T3, PLA2G7 (Mus musculus, UniProt Q60963); conditions: for inhibition at 1 µM: 1 μM inhibitor, read-out: % Inhibition at 1 μM, D = PLA2G7; for inhibition at 10 µM: 10 μM inhibitor, read-out: % Inhibition at 10 μM, D = PLA2G7; for IC50: mouse brain membrane fraction or cell lysates, 30 min preincubation at 37° C.
T3 construct: Proteomes (mouse brain membrane fraction or cell lysates); from tissue; host or cells: mouse brain membrane fraction (or cell lysates, not specified)
T3 sequence (Q60963 22-440): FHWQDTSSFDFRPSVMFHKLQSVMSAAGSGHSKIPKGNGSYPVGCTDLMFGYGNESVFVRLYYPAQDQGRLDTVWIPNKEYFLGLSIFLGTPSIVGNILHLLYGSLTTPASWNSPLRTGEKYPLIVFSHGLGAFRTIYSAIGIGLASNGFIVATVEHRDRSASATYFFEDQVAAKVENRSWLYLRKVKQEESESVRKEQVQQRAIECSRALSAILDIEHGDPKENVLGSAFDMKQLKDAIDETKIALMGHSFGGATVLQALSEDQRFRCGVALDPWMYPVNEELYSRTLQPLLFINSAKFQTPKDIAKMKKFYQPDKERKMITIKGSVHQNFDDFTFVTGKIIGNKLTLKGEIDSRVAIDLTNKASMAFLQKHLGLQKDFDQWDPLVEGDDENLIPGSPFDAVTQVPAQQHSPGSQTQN
Method in brief: as §1

FAAH = target: T4, FAAH (Mus musculus, UniProt O08914); conditions: for inhibition at 1 µM: 1 μM inhibitor, read-out: % Inhibition at 1 μM, B = FAAH; for inhibition at 10 µM: 10 μM inhibitor, read-out: % Inhibition at 10 μM, B = FAAH; for IC50: mouse brain membrane fraction or cell lysates, 30 min preincubation at 37° C., read-out: Mouse (IC50 value, nM) FAAH
T4 construct: Proteomes (mouse brain membrane fraction or cell lysates); from tissue; host or cells: mouse brain membrane fraction (or cell lysates, not specified)
T4 sequence (O08914 1-579): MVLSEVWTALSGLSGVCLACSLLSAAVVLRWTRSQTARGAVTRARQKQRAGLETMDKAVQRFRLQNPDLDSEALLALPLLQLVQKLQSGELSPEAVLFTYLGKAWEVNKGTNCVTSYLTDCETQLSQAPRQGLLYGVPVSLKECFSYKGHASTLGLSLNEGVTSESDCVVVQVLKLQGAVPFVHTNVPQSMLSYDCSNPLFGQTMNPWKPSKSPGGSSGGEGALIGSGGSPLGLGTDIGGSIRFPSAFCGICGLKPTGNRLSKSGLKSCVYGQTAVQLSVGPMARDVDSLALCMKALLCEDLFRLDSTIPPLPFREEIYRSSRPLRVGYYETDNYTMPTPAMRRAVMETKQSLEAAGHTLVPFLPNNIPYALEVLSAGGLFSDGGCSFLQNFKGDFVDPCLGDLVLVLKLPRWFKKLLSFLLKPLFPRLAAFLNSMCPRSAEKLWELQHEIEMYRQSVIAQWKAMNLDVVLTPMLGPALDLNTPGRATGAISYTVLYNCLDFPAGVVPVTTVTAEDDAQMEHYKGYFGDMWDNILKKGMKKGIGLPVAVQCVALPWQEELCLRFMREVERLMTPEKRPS
Method in brief: as §1

SMILES	inhibition at 1 µM (ABHD6)	inhibition at 10 µM (ABHD6)	inhibition at 1 µM (MAGL)	inhibition at 10 µM (MAGL)	inhibition at 1 µM (PLA2G7)	inhibition at 10 µM (PLA2G7)	inhibition at 1 µM (FAAH)	inhibition at 10 µM (FAAH)	IC50 (ABHD6)	IC50 (MAGL)	IC50 (PLA2G7)	IC50 (FAAH)
N#Cc1cnn(C(=O)N2CCN(Cc3ccc(-c4ccccc4)cc3OCc3ccccc3)CC2)c1 [Example 146, 1-(4-((3-(Benzyloxy)biphenyl-4-yl)methyl)piperazine-1-carbonyl)-1H-pyrazole-4-carbonitrile]	> 75%	> 75%	> 75%	> 75%	< 25%	> 75%	> 75%	> 75%	–	–	–	–
O=C(N1CCN(Cc2ccc(-c3ccccc3)cc2OCc2ccccc2)CC1)n1cc(C(F)(F)F)cn1 [Example 147, (4-((3-(Benzyloxy)biphenyl-4-yl)methyl)piperazin-1-yl)(4-(trifluoromethyl)-1H-pyrazol-1-yl)methanone]	> 75%	> 75%	> 75%	> 75%	< 25%	> 75%	> 75%	> 75%	–	–	–	–
O=C(N1CCN(Cc2ccc(-c3ccccc3)cc2OCc2ccccc2)CC1)n1cc(Cl)cn1 [Example 148, (4-((3-(Benzyloxy)biphenyl-4-yl)methyl)piperazin-1-yl)(4-chloro-1H-pyrazol-1-yl)methanone]	> 75%	> 75%	> 75%	> 75%	< 25%	< 25%	> 75%	> 75%	–	–	–	–
CC(=O)N1CCN(C(=O)n2cc(C(F)(F)F)cn2)CC1 [Example 149, 1-(4-(4-(Trifluoromethyl)-1H-pyrazole-1-carbonyl)piperazin-1-yl)ethanone]	< 25%	25 to 75%	< 25%	25 to 75%	> 75%	> 75%	< 25%	< 25%	–	–	–	–
CS(=O)(=O)N1CCN(C(=O)n2cc(C(F)(F)F)cn2)CC1 [Example 150, (4-(Methylsulfonyl)piperazin-1-yl)(4-(trifluoromethyl)-1H-pyrazol-1-yl)methanone]	> 75%	> 75%	< 25%	25 to 75%	> 75%	> 75%	< 25%	25 to 75%	–	–	–	–
CN1CCN(C(=O)n2cc(C(F)(F)F)cn2)CC1 [Example 151, (4-Methylpiperazin-1-yl)(4-(trifluoromethyl)-1H-pyrazol-1-yl)methanone]	> 75%	> 75%	< 25%	> 75%	25 to 75%	> 75%	> 75%	> 75%	–	–	–	–
O=C(N1CCN(Cc2ccccc2)CC1)n1cc(C(F)(F)F)cn1 [Example 152, (4-Benzylpiperazin-1-yl)(4-(trifluoromethyl)-1H-pyrazol-1-yl)methanone]	> 75%	> 75%	> 75%	> 75%	> 75%	> 75%	> 75%	> 75%	–	–	–	–
O=C(c1ccccc1)N1CCN(C(=O)n2cc(C(F)(F)F)cn2)CC1 [Example 153, (4-Benzoylpiperazin-1-yl)(4-(trifluoromethyl)-1H-pyrazol-1-yl)methanone]	< 25%	> 75%	> 75%	> 75%	> 75%	> 75%	< 25%	25 to 75%	–	–	–	–
CC(=O)N1CCCN(C(=O)n2cc(C(F)(F)F)cn2)CC1 [Example 154, 1-(4-(4-(trifluoromethyl)-1H-pyrazole-1-carbonyl)-1,4-diazepan-1-yl)ethanone]	< 25%	> 75%	< 25%	< 25%	25 to 75%	> 75%	< 25%	25 to 75%	–	–	–	–
CS(=O)(=O)N1CCCN(C(=O)n2cc(C(F)(F)F)cn2)CC1 [Example 155, (4-(Methylsulfonyl)-1,4-diazepan-1-yl)(4-(trifluoromethyl)-1H-pyrazol-1-yl)methanone]	< 25%	> 75%	< 25%	25 to 75%	> 75%	> 75%	25 to 75%	> 75%	–	–	–	–
CN1CCCN(C(=O)n2cc(C(F)(F)F)cn2)CC1 [Example 156, (4-Methyl-1,4-diazepan-1-yl)(4-(trifluoromethyl)-1H-pyrazol-1-yl)methanone]	< 25%	< 25%	< 25%	< 25%	< 25%	> 75%	< 25%	25 to 75%	–	–	–	–
O=C(N1CCCN(Cc2ccccc2)CC1)n1cc(C(F)(F)F)cn1 [Example 157, (4-Benzyl-1,4-diazepan-1-yl)(4-(trifluoromethyl)-1H-pyrazol-1-yl)methanone]	> 75%	> 75%	> 75%	> 75%	< 25%	> 75%	> 75%	> 75%	> 1000 nM	> 1000 nM	> 1000 nM	100 to 1000 nM
O=C(c1ccccc1)N1CCCN(C(=O)n2cc(C(F)(F)F)cn2)CC1 [Example 158, (4-Benzoyl-1,4-diazepan-1-yl)(4-(trifluoromethyl)-1H-pyrazol-1-yl)methanone]	> 75%	> 75%	> 75%	> 75%	> 75%	> 75%	> 75%	> 75%	> 1000 nM	> 1000 nM	> 1000 nM	> 1000 nM
CC(=O)N(C)CCN(C)C(=O)n1cc(C(F)(F)F)cn1 [Example 159, N-Methyl-N-(2-(N-methylacetamido)ethyl)-4-(trifluoromethyl)-1H-pyrazole-1-carboxamide]	< 25%	> 75%	< 25%	< 25%	< 25%	> 75%	< 25%	25 to 75%	–	–	–	–
